Measurements taken from patent publication US12083101B2, “Biaryl derivatives as YAP/TAZ-TEAD protein-protein interaction inhibitors” (Novartis AG, priority 2020, dated 2024).
Like-named read-outs stand apart in the source and are kept apart here.

How the values were obtained:
[1] = molecular target: Avi-humanTEAD4 217-434 / Cy5 labeled humanYAP 60-100 (Homo sapiens (Human), UniProt Q15561); assay: TR-FRET YAP-TEAD4 in-vitro biochemical assay; type: binding; conditions: 1 nM Avi-humanTEAD4 217-434, 20 nM Cy5-humanYAP 60-100, 1 h room temperature
Sequence of Avi-humanTEAD4 217-434 / Cy5 labeled humanYAP 60-100 (Q15561 217-434): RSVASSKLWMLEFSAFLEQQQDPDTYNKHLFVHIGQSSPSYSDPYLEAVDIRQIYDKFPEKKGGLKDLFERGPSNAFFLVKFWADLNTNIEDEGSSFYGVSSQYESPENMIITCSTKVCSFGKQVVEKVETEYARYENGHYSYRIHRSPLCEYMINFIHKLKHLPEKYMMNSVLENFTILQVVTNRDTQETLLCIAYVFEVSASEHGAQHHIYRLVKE

[2] = tested on: NCI-H2052 Tet-On shYAP_2371 pLenti6 MCAT_Luc cells (YAP-dependent transcription); assay: YAP reporter gene activity assay (MCAT-luciferase), NCI-H2052; type: cell-based; conditions: 24 hours incubation, BrightGlo luminescence
Procedure, shortened: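 NCI-H2052 cells carrying an MCAT-luciferase reporter and a tetracycline-inducible YAP 3′UTR shRNA were treated with eleven 2-fold compound dilutions (0.1% DMSO) for 24 h at 37 °C. BrightGlo luminescence was background-subtracted and expressed as % of DMSO control. IC50 came from a four-parameter fit; MKN-45/Ubc-luc cells served as the specificity counterscreen.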

[3] = tested on: NCI-H2052 Tet-On shYAP_2371 pLenti6 MCAT_Luc cells; assay: Proliferation assay (resazurin), NCI-H2052; type: cell-based; conditions: 72 hours incubation
Procedure, shortened: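 The NCI-H2052 line carries a Tet-inducible shRNA against the YAP1 3′UTR and an MCAT luciferase reporter. The day after seeding, it received eleven 2-fold compound dilutions at 0.1% DMSO, and viability was read by resazurin fluorescence.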

MKN-45/Ubc-luc cells [4] = assay: Proliferation assay (resazurin), MKN-45; type: cell-based; conditions: 72 hours incubation
MKN-45/Ubc-luc cells [5] = assay: Reporter gene specificity control (Ubc-luciferase), MKN-45
[6] = read-out: Reporter gene assay MKN-45 IC50, MKN-45/Ubc-luc cells (YAP deleted, specificity control), 24 hours incubation
[7] = Homo sapiens, MKN-45, 24 h, read-out: Reporter gene assay MKN-45 IC50 [μM], MKN-45/Ubc-luc cells (YAP deleted, specificity control), 24 hours incubation

| Compound | IC50 [1] | IC50 [2] | GI50 [3] | GI50 (MKN-45/Ubc-luc cells [4]) | IC50 (MKN-45/Ubc-luc cells [5]; [6]) | GI50 ([3]; Homo sapiens, NCI-H2052, 72 h) | GI50 (MKN-45/Ubc-luc cells [4]; Homo sapiens) | IC50 (MKN-45/Ubc-luc cells [5]; [7]) | IC50 ([2]; Homo sapiens, NCI-H2052, 24 h) |
| --- | --- | --- | --- | --- | --- | --- | --- | --- | --- |
| COc1ccc(C(N)=O)c(-c2c(Cl)ccc3c2C[C@@](CN[C@H]2CC[C@H](O)CC2)(c2ccccc2)O3)c1F (relative stereo) [Example 27a, 2-((2S,4S)-5-Chloro-2-(((trans-4-hydroxycyclohexyl)amino)methyl)-2-phenyl-2,3-dihydrobenzofuran-4-yl)-3-fluoro-4-methoxybenzamide] | 1 nM | 26 nM | 81 nM | > 10000 nM | > 10 µM | – | – | – | – |
| COc1ccc(C(N)=O)c(-c2c(Cl)ccc3c2C[C@@](CN[C@H]2CC[C@@H](O)CC2)(c2ccccc2)O3)c1F (relative stereo) [Example 27b, 2-((2S,4S)-5-chloro-2-(((cis-4-hydroxycyclohexyl)amino)methyl)-2-phenyl-2,3-dihydrobenzofuran-4-yl)-3-fluoro-4-methoxybenzamide] | 1 nM | 78 nM | 182 nM | > 10000 nM | > 10 µM | – | – | – | – |
| COc1ccc(C(N)=O)c(-c2c(Cl)ccc3c2C[C@@](CN[C@H]2CC[C@H](C(=O)O)CC2)(c2ccccc2)O3)c1F (relative stereo) [Example 28a, (Trans)-4-((((2S,4S)-4-(6-carbamoyl-2-fluoro-3-methoxyphenyl)-5-chloro-2-phenyl-2,3-dihydrobenzofuran-2-yl)methyl)amino)cyclohexanecarboxylic acid] | 3 nM | 86 nM | 224 nM | > 10000 nM | > 10 µM | – | – | – | – |
| COc1ccc(C(N)=O)c(-c2c(Cl)ccc3c2C[C@@](CN[C@H]2CC[C@@H](C(=O)O)CC2)(c2ccccc2)O3)c1F (relative stereo) [Example 28b, (cis)-4-((((2S,4S)-4-(6-carbamoyl-2-fluoro-3-methoxyphenyl)-5-chloro-2-phenyl-2,3-dihydrobenzofuran-2-yl)methyl)amino)cyclohexanecarboxylic acid] | 3 nM | 55 nM | 148 nM | > 10000 nM | > 10 µM | – | – | – | – |
| NC(=O)c1ccc(OC(F)F)c(F)c1-c1c(Cl)ccc2c1[C@H](O)[C@@](CN[C@H]1CC[C@H](O)CC1)(c1ccccc1)O2 (relative stereo) [Example 94a, 2-((2S,3S,4S)-5-chloro-3-hydroxy-2-((((trans)-4-hydroxycyclohexyl)amino)methyl)-2-phenyl-2,3-dihydrobenzofuran-4-yl)-4-(difluoromethoxy)-3-fluorobenzamide] | 2 nM | 45 nM | 68 nM | > 10000 nM | > 10 µM | – | – | – | – |
| NC(=O)c1ccc(OC(F)F)c(F)c1-c1c(Cl)ccc2c1[C@H](O)[C@@](CN[C@H]1CC[C@@H](O)CC1)(c1ccccc1)O2 (relative stereo) [Example 94b, 2-((2S,3S,4S)-5-chloro-3-hydroxy-2-((((cis)-4-hydroxycyclohexyl)amino)methyl)-2-phenyl-2,3-dihydrobenzofuran-4-yl)-4-(difluoromethoxy)-3-fluorobenzamide] | 3 nM | 83 nM | 101 nM | > 10000 nM | > 10 µM | – | – | – | – |
| C[C@H]1c2c(ccc(Cl)c2-c2c(C(N)=O)ccc(OC(F)F)c2F)O[C@]1(CN[C@H]1CC[C@@](C)(O)CC1)c1ccccc1 (relative stereo) [Example 104a, 2-((2S,3S,4S)-5-chloro-2-((((cis)-4-hydroxy-4-methylcyclohexyl)amino)methyl)-3-methyl-2-phenyl-2,3-dihydrobenzofuran-4-yl)-4-(difluoromethoxy)-3-fluorobenzamide] | 3 nM | 35 nM | 144 nM | 6200 nM | > 10 µM | – | – | – | – |
| C[C@H]1c2c(ccc(Cl)c2-c2c(C(N)=O)ccc(OC(F)F)c2F)O[C@]1(CN[C@H]1CC[C@](C)(O)CC1)c1ccccc1 (relative stereo) [Example 104b, 2-((2S,3S,4S)-5-chloro-2-((((trans)-4-hydroxy-4-methylcyclohexyl)amino)methyl)-3-methyl-2-phenyl-2,3-dihydrobenzofuran-4-yl)-4-(difluoromethoxy)-3-fluorobenzamide] | 2 nM | 22 nM | 55 nM | > 10000 nM | > 10 µM | – | – | – | – |
| NC(=O)c1ccc(OCCO)c(F)c1-c1c(Cl)c(F)cc2c1C[C@@](CN[C@H]1C[C@@H](C(F)F)C1)(c1ccccc1)O2 (relative stereo) [Example 140a, 2-((2S,4S)-5-Chloro-2-((((cis)-3-(difluoromethyl)cyclobutyl)amino)methyl)-6-fluoro-2-phenyl-2,3-dihydrobenzofuran-4-yl)-3-fluoro-4-(2-hydroxyethoxy)benzamide] | 4 nM | 23 nM | 28 nM | > 10000 nM | > 10 µM | – | – | – | – |
| NC(=O)c1ccc(OCCO)c(F)c1-c1c(Cl)c(F)cc2c1C[C@@](CN[C@H]1C[C@H](C(F)F)C1)(c1ccccc1)O2 (relative stereo) [Example 140b, 2-((2S,4S)-5-chloro-2-((((trans)-3-(difluoromethyl)cyclobutyl)amino)methyl)-6-fluoro-2-phenyl-2,3-dihydrobenzofuran-4-yl)-3-fluoro-4-(2-hydroxyethoxy)benzamide] | 6 nM | 28 nM | 29 nM | > 10000 nM | > 10 µM | – | – | – | – |
| COc1ccc(C(N)=O)c(-c2c(Cl)ccc3c2C[C@@](CN)(c2ccccc2)O3)c1F (single isomer, unassigned) [Example 5a] | 5 nM | 130 nM | 280 nM | > 10000 nM | > 20 µM | – | – | – | – |
| COc1ccc(C(N)=O)c(-c2c(Cl)ccc3c2C[C@@](CN)(c2ccccc2)O3)c1F (single isomer, unassigned) [Example 5b] | 23300 nM | > 10000 nM | > 10000 nM | > 10000 nM | > 10 µM | – | – | – | – |
| CC(=O)NC1CCC(NC[C@@]2(c3ccccc3)Cc3c(cc(F)c(Cl)c3-c3c(C(N)=O)ccc(OC(F)F)c3F)O2)CC1 (single isomer, unassigned) [Example 56a] | 2 nM | 70 nM | – | – | – | 195 nM | > 10000 nM | > 10 µM | – |
| CC(=O)NC1CCC(NC[C@@]2(c3ccccc3)Cc3c(cc(F)c(Cl)c3-c3c(C(N)=O)ccc(OC(F)F)c3F)O2)CC1 (single isomer, unassigned) [Example 56b] | 11 nM | 194 nM | 372 nM | > 10000 nM | 7.6 µM | – | – | – | – |
| CN(C)C(=O)C1CCC(NC[C@@]2(c3ccccc3)Cc3c(cc(F)c(Cl)c3-c3c(C(N)=O)ccc(OC(F)F)c3F)O2)CC1 (single isomer, unassigned) [Example 58a] | 4 nM | – | – | – | – | 125 nM | > 10000 nM | > 10 µM | 67 nM |
| CN(C)C(=O)C1CCC(NC[C@@]2(c3ccccc3)Cc3c(cc(F)c(Cl)c3-c3c(C(N)=O)ccc(OC(F)F)c3F)O2)CC1 (single isomer, unassigned) [Example 58b] | 6 nM | 104 nM | 167 nM | > 10000 nM | > 10 µM | – | – | – | – |
| CC(C)(O)C1CC(NC[C@@]2(c3ccccc3)Cc3c(cc(F)c(Cl)c3-c3c(C(N)=O)ccc(OC(F)F)c3F)O2)C1 (single isomer, unassigned) [Example 62a] | 16 nM | 203 nM | 240 nM | – | – | – | > 10000 nM | > 10 µM | – |
| CC(C)(O)C1CC(NC[C@@]2(c3ccccc3)Cc3c(cc(F)c(Cl)c3-c3c(C(N)=O)ccc(OC(F)F)c3F)O2)C1 (single isomer, unassigned) [Example 62b] | 6 nM | 54 nM | 89 nM | > 10000 nM | > 10 µM | – | – | – | – |
| NC(=O)c1ccc(OC(F)F)c(F)c1-c1c(Cl)c(F)cc2c1C[C@](c1ccccc1)(C1CC(O)CN1)O2 (single isomer, unassigned) [Example 158] | 5 nM | – | – | – | – | 181 nM | > 10000 nM | > 10 µM | 93 nM |
| Fc1cc2c(c(-c3ccccc3)c1Cl)C[C@](c1ccccc1)(C1COCCN1)O2 (single isomer, unassigned) [Example 162] | 1520 nM | – | – | – | – | 1760 nM | > 10000 nM | > 10 µM | 1000 nM |
| CS(=O)(=O)[C@H]1CC[C@@H](NC[C@@]2(c3ccccc3)Cc3c(cc(F)c(Cl)c3-c3c(C(N)=O)ccc(OC(F)F)c3F)O2)CC1 [Example 54a, 2-((2S,4S)-5-Chloro-6-fluoro-2-((((cis)-4-(methylsulfonyl)cyclohexyl)amino)methyl)-2-phenyl-2,3-dihydrobenzofuran-4-yl)-4-(difluoromethoxy)-3-fluorobenzamide] | 75 nM | – | – | – | – | 670 nM | > 10000 nM | > 10 µM | 147 nM |
